“Also recorded” adds a separate entry of the source.
Key:
rabbit corneas = test: In vivo PTB of 6-mm penetrating keratoplasty incisions anchored by sutures, bursting pressure; conditions: 1% Rose Bengal, 191 J/cm2, 6-mm PK incision with 4-16 sutures
Description: PTB was performed in vivo in New Zealand rabbits to repair two types of corneal wounds.
In Group II, 6-mm Penetrating Keratoplasy (PK) incisions anchored by 4-16 sutures were performed in 16 rabbit corneas. Half of the corneas in each group underwent PTB where 1% Rose Bengal dye was applied to the wound edges followed by laser irradiation at fluence of 191 J/cm2. Photoactivation was performed with a 514 nm Argon Laser and a 532-nm CW Nd: YAG laser. Wound leak and incisional bursting pressure were determined in vivo in the immediate postoperative period.

bovine achilles tendons = test: PTB of ruptured bovine achilles tendons in vitro, ultimate stress and stiffness; conditions: for Mean change in stiffness % (95% CI) / Mean change in ultimate stress % (95% CI): relative to healthy tendon
Description: To test the ability of PTB to quickly and effectively bond ruptured tendons, an in vitro model utilizing bovine tendons was developed. The use of bovine models in wound healing is well known by those skilled in the art. The similarities between bovine wound healing and that of humans enables one to extrapolate the therapeutic results obtained in a bovine model system to a therapeutic result in humans.
Fresh bovine achilles tendons were obtained and stored at […] until use. The tendon was cut into dumbbell-shaped 5 cm strips with the central 3 cm strip at an approximate cross-sectional area of 1 mm by 1 mm, and were irrigated constantly with phosphate buffered saline (PBS) to prevent desiccation.
Rupture of the tendon was induced by weakening the central 1 cm of the tendon with a surgical blade and mechanically pulling it apart. A solution of Rose Bengal at various concentrations (0.1, 0.5 and 1.0% weight per volume in PBS) was applied to the ends of the ruptured tendons for two minutes, after which the ruptured ends were approximated and the excess dye was removed.
The ruptured ends of the tendon were crossed over each other with an overlap of approximately 1 cm before being wrapped by several layers of tissue paper. The tissue wrapped tendon was rolled and pressed in order to approximate the ruptured ends and remove the excess dye. The tissue paper was carefully removed before the tendon was placed between two glass slides that were then clipped together.
The center of the approximated tendon was irradiated with an argon laser (514 nm), having a spot size of 1 cm in diameter, which was transmitted through an optic fiber. The laser was applied with an irradiance of 0.5, 1.0, or 1.5 W/cm^2, while the fluence of laser energy applied was 125, 250, 500, or 750 J/cm^2. The exposure time ranged from 1 min and 23 seconds to 25 minutes.
Control tendons were ruptured in the same manner, however treatments consisted of application of Rose Bengal and approximation of the tendon ends without laser irradation, approximation of the tendon ends with laser irradiation but no exposure to rose bengal, and approximation of the ends with no further treatment.
To test the effectiveness of the photochemical tissue bonding, immediately after photochemical tissue bonding, the tendon strips were attached to the fixture of a tensiometer, which was coupled to a force transducer (FIG. 17). The tendon was held at a straight and vertical position, and cyclic loading of the tendon was conducted by stretching the tendon for a magnitude of 0.5 mm for 6 cycles. The tendon was brought back to a zero deflection position before being pulled to failure at a constant speed of 100 mm/min. The peak force needed to rupture the tendon was recorded, and a typical force-deflection curve was obtained (FIG. 18). The ultimate stress and stiffness (peak force for tendon rupture normalized by the cross-sectional area, and slope of the linear region of the force-deflection curve, respectively) were calculated from the force-deflection curve.
Healthy tendons were also placed in the tensiometer, and were pulled to the point of failure. Following failure, they were treated with photochemical tissue bonding at 500 J/cm^2 fluence and again pulled to failure to study the percentage of recovery of mechanical properties. Immediately after the photochemical tissue bonding, the ultimate stress and the stiffness returned to approximately 59.66% and 52.75% of the healthy tendon, respectively (Table 1).

[1] = test system: epidermal cells of skin grafts; test: Trypan blue exclusion assay of epidermal cells from skin grafts after PTB; assay type: cell-based, mini pigs; conditions: 0.1% RB
Description: The cell viability in the skin grafts was further assessed quantitatively by trypan blue exclusion assay. The upper grafts were chosen to be examined because they absorbed more light, and therefore would be damaged to a greater extent, if any, than the lower ones. Following irradiation, the upper skin grafts were incubated with 1 mg/ml dispase (Life Technologies, Rockville, Md.) in PBS overnight at 4° C. The epidermis was gently peeled off from the dermis and washed twice in PBS. Epidermal cells were released by incubating the epidermis with 0.25% trypsin-EDTA (Cellgro) at 37° C. for 15 minutes, accompanied by gentle agitation. Fetal calf serum (FCS) was added to inhibit trypsin activity and the cell suspension was then centrifuged at 2500 rpm for 10 mins. The cell pellet was washed once and re-suspended in PBS. The trypan blue exclusion assay was performed after mixing equal volumes of cell suspension and 0.2% (w/v) trypan blue and loading onto a hemocytometer. The number of viable cells released from each skin graft was calculated. After preparing a single cell suspension from intact epidermis, the cell viability was assessed (FIG. 11).

esophageal keratinocytes = test: NADH-diaphorase viability of esophageal keratinocytes after PTB; assay type: cell-based
Description: The viability of the photoactivated cells was also assessed. Nicotinamide adenine dinucleotide (NADH-diaphorase) staining was carried out based on the methods described by Heisterkamp J et al. (1999) Lasers Sug Med 25(3): 257-62 and Neumann R A et al. (1991) J Am Acad Dermatol 25: 991-8. Following irradiation, the keratinocyte layer was gently peeled away from the collagen gel and was exposed overnight to an incubation solution consisting of nicotinamide adenine dinucleotide (NADH) and nitroblue tetrazolium chloride (NBT) (Sigma). The viability of the cells was indicated by the formation of a water-insoluble blue precipitate (diformazan), which corresponded to areas with NADH-diaphorase activity. The insoluble blue precipitate was dissolved in DMSO (an organic solvent) and quantified by measuring the optical density (OD) at 550 nm against a commercially available standard. The negative control, RB control, and the laser control composites were also tested using identical conditions. It was determined for the negative control, RB control, laser control, 50 J/cm^2 composite sample, and the 100 J/cm^2 composite sample that the levels of corresponding blue precipitate were 143, 151, 158, 173 and 158 diformazan/nM after photochemical tissue bonding treatment (FIG. 16).

[2] = argon laser 514 nm and Rose Bengal
[3] = higher Rose Bengal concentrations (0.0, 0.1, 0.5, 1.0% w/v in PBS)

O=C([O-])c1c(Cl)c(Cl)c(Cl)c(Cl)c1-c1c2cc(I)c(=O)c(I)c-2oc2c(I)c([O-])c(I)cc12.[Na+].[Na+] [Rose Bengal]
immediate bursting pressure (rabbit corneas): 410±70 mm Hg
dehydration of the tendon (bovine achilles tendons; 1.0% Rose Bengal): dehydration of the tendon was noticed
Mean change in stiffness % (95% CI) (bovine achilles tendons; Dye control (dye, no laser)): 20.65 (10.16, 31.14) %
Mean change in ultimate stress % (95% CI) (bovine achilles tendons; Dye control (dye, no laser)): 24.18 (6.57, 41.79) %
Mean change in stiffness % (95% CI) (bovine achilles tendons; Laser + Dye, 500 J/cm^2): 52.75 (24.05, 81.45) %
Mean change in ultimate stress % (95% CI) (bovine achilles tendons; Laser + Dye, 500 J/cm^2): 59.66 (8.71, 110.61) %
stiffness of ruptured tendon vs controls (bovine achilles tendons; [2]): significantly increased; also recorded: significant increase
ultimate stress of ruptured tendon vs controls (bovine achilles tendons; [2]): significantly increased; also recorded: significant increase
stiffness of ruptured tendon (bovine achilles tendons; [3]): significant increase
ultimate stress of ruptured tendon (bovine achilles tendons; [3]): significant increase
number of viable cells per skin graft vs control ([1]; 0.56 W/cm^2, 126, 252 and 504 J/cm^2): not significantly different
number of viable cells relative to control group ([1]; 504 J/cm^2): ~80%
level of blue precipitate (NADH-diaphorase viability) (esophageal keratinocytes; 0.1% RB, 50 J/cm^2): 173 diformazan/nM
level of blue precipitate (NADH-diaphorase viability) (esophageal keratinocytes; 0.1% RB, 100 J/cm^2): 158 diformazan/nM
level of blue precipitate (NADH-diaphorase viability) (esophageal keratinocytes; RB control: RB treated, nonirradiated): 151 diformazan/nM
